Measurements reported in patent US20030161893A1, “PTPase inhibitors and methods of using the same” (priority 2001, published 2003).

Tests used:
LoVo cells = assay: Cell growth assay (MTT), LoVo colon cancer cells; format: cell-based, human; conditions: 100 μg/ml, day 6
Protocol: (§1) NIH3T3 (Yi, et al., Blood 85, 87 (1995)), WM9 (Forsberg, et al., Proc. Nat. Acad Sci. USA 90, 393 (1993)), DU145 (Mickey, et al., Cancer Res. 37, 4049 (1977)), LoVo (Drewinko, et al., Cancer Res. 36, 467 (1976)), HEY (Buick, et al., Cancer Res. 45, 3668 (1985)), U251 (Yoshida, et al., Cancer 50, 410 (1982)), A549 (Giard, et al., J. Natl. Cancer Inst. 51, 1417 (1973)) and SK-N-SH (Helson, et al., Cancer Res. 35, 2594 (1975)) cell lines have been described and were cultured in RPMI 1640 supplemented with 10% fetal calf serum (FCS). For measurement of sodium stibogluconate effects on cell growth in vitro, cells were cultured in the absence (−) or presence (+) of various amounts of sodium stibogluconate for 6 days with viable cells quantified by MTT assays (Mosmann, J. Imunol. Methods 65, 55 (1983)). Percentages of growth inhibition by sodium stibogluconate were calculated (+/−×%).

MKP1 = target: T1, MKP1 (Homo sapiens, UniProt P28562); assay: In vitro PTPase assay, GST/MKP1 fusion protein; format: biochemical
T1 construct: a pGEX construct containing the coding region of MKP1 cDNA derived by RT-PCR; made in house; host or cells: DH5a bacteria (E. coli)
T1 sequence (P28562 1-367): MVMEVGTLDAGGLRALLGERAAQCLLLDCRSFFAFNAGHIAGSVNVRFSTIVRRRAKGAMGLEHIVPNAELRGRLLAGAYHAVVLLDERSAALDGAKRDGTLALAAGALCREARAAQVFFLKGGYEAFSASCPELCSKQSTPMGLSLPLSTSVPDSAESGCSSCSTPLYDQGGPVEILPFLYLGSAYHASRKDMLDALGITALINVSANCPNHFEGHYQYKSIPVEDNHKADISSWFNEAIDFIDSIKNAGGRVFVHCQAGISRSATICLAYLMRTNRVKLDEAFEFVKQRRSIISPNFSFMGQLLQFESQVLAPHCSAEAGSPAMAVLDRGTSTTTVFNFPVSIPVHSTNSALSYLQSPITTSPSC

Jak2/Stat5 = assay: IL-3-induced Jak2/Stat5 tyrosine phosphorylation in Baf3 cells; format: cell-based, murine
Protocol: For induction of cellular protein phosphorylation by sodium stibogluconate or pervanadate, Baf3 cells were incubated in 0.1% FCS-RPMI 1640 medium at 37° C. for 16 hours. The cells were then washed twice in RPMI 1640 medium and incubated with sodium stibogluconate or pervanandate (0.1 mM) for various times prior to termination by lysing cells in cold lysis buffer (50 mM Tris, pH 7.4; 150 mM NaCl; 0.2 mM Na3VO4; 20 mm NaF; 1% Nonidet P-40; 2 mM PMSF; 20 μg/ml of Aprotinin and 1 mM of sodium molybdic acid). To determine the effect of sodium stibogluconate or potassium antimonyl tartrate on IL-3-induced Jak/Stat phosphorylation, Baf3 cells were deprived of the growth factor for 16 hours in 0.1% FCS RPMI 1640 medium and then incubated with or without sodium stibogluconate or potassium antimonyl tartrate for 10 minutes. IL-3 was next added to the cell suspension and incubated for various times. The Cells were then harvested and lysed in cold lysis buffer at 4° C. for 45 minutes. Total cell lysates (TCL) were separated in SDS-PAGE gels, blotted onto nitrocellulose membrane (Schleicher & Schuell), probed with specific antibodies and detected using an enhanced chemiluminescence kit (ECL, Amersham, Arlington Heights, Ill.).

WM35 cells = assay: Cell proliferation assay (MTT), WM35 melanoma cells; format: cell-based, human
Protocol: (§2) For cell proliferation assays, cells were grown in 10% FCS culture medium containing various amounts of IFNs and/or sodium stibogluconate in 96 well plates and cultured at 37° C. for 3 or 6 days as indicated. The numbers of viable cells in proliferation assays were determined by MTT assays as described in Phatak et al., J. Immunol. 167, 3391 (2001).

[1] = cited from earlier work
DS cells = assay: Cell proliferation assay (MTT), DS lymphoma cells; format: cell-based, human; conditions: day 3; IFN-alpha 1,000 u/ml
Protocol: as §2

SK-N-SH cells = assay: Cell growth assay (MTT), SK-N-SH neuroblastoma cells; format: cell-based, human; conditions: 100 μg/ml, day 6
Protocol: as §1

Flag-PRL-1 = target: T2, Flag-PRL-1 (Homo sapiens, UniProt Q93096); assay: Immunocomplex PTPase assay, Flag-PRL-1 NIH3T3 transfectants; format: cell-based; conditions: cells treated 5 min
T2 construct: expressed in transfected cells
Protocol: Immunocomplex PTPase assays were performed to assess the effects of sodium stibogluconate on intracellular PTPases. Cells were untreated or treated with sodium stibogluconate for 5 minutes, washed with fresh medium and then lysed in cold lysis buffer (50 mM Tris, pH 7.4; 150 mM NaCl; 1% NP40; 2 mM PMSF; 20 ,g/ml of Aprotinin). The lysates were incubated with an anti-Flag antibody in immunoprecipitation assays. The immunocomplexes were collected with protein G sepharose beads (Pharmacia) and washed in cold lysis buffer for 4 times. […] 100 μL of malachite green solution (UBI) was added to each reaction prior to measurement of OD660 to quantify the amounts of free phosphate cleaved by the PTPases from the peptide substrate (Pathak et al., J. Imumol. 167, 3391 (2001)). The remaining 10% contents of individual samples were analyzed by SDS-PAGE/Western blotting to quantify the relative amounts of the phosphatase proteins. […]
The effects of sodium stibogluconate on intracellular PTPases were assessed using NIH3T3 or WM9 transfectants. […]

T2 sequence (Q93096 whole entry): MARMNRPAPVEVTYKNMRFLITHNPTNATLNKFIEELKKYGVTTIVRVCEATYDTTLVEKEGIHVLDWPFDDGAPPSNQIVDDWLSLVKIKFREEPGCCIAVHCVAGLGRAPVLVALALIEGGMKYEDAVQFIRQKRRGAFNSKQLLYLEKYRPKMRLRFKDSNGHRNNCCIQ

For O.O.O.O.O.O.O.O.O.O=C([O-])[C@@H]1[O][Sb]2([O-])([O][Sb]34([OH])[O][C@H]([C@H](O)CO)[C@H]([O]3)[C@H](C(=O)[O-])[O]4)[O][C@H]([C@H](O)CO)[C@@H]1[O]2.[Na+].[Na+].[Na+] [sodium stibogluconate], the “cell killing, LoVo” value (LoVo cells) was “near-complete cell killing”, the “inhibition of MKP1” value (MKP1) was “no obvious effects” and the “inhibitory activity against MKP1” value (MKP1) was “no obvious inhibitory activity”. For the same molecule, the “phosphotyrosine levels of Jak2 and Stat5 versus cells without drug” value (Jak2/Stat5; IL-3 stimulated, densitometry) was “about twice”, the “Jak2/Stat5 tyrosine phosphorylation by drug alone” value (Jak2/Stat5; no IL-3, 37° C. for 16 hours) was “failed to induce Jak2/Stat5 tyrosine phosphorylation” and the “sensitivity of WM35 cells” value (WM35 cells) was “minimally affected”. The “serum levels at standard dosage for leishmaniasis treatment” value ([1]; 10-20 mg/kg/day) was ≥ 10000 ng/mL, the “clinical side effects at higher dosages” value ([1]; human, in vivo) was “reversible nonspecific ECG changes and renal defects” and the “clinical tolerability at therapeutic dosages” value ([1]; human, in vivo) was “well tolerated”. The “activity against DS cells” value (DS cells) was “modest activity”, the “cell killing, SK-N-SH” value (SK-N-SH cells) was “near-complete cell killing” and the “PTPase activity of anti-Flag immunocomplexes, Flag-PRL-1” value (Flag-PRL-1) was “little PTPase activities”.
